We go through four compounds from ChEMBL document CHEMBL5252559, “Altersteroids A-D, 9,11-Secosteroid-Derived γ-Lactones from an Alternaria sp” (J Nat Prod, 2023).

The structures appear in SMILES notation.

In one assay the test system is HCT-116. The experiment in a line: Cytotoxicity against human HCT-116 cells assessed as inhibition of cell growth incubated for 72 hrs by MTT assay. The note with it: HCT-116, 72 h. It counts as functional, cell-based. (Tetrazolium dyes change colour on reduction, which living cells bring about.)
For assay [1], the system named is A549. The experiment in a line: Cytotoxicity against human A549 cells assessed as inhibition of cell growth incubated for 72 hrs by MTT assay. The assay is classed as functional, cell-based. As to conditions: A549, 72 h.
A short description of assay [2]: Cytotoxicity against cisplatin-sensitive mouse MB49 cells assessed as inhibition of cell growth incubated for 72 hrs by MTT assay. The assay is classed as functional, cell-based. The note with it: MB49, 72 h.
Assay [3] can be described thus: Cytotoxicity against cisplatin-resistant mouse MB49 cells assessed as inhibition of cell growth incubated for 72 hrs by MTT assay. The assay is classed as functional, cell-based. The note with it: MB49, 72 h.
The subject of assay [4] is A549. In words: Induction of apoptosis in human A549 cells assessed as caspase 3/7 positive cells at 31.6 uM incubated for 48 hrs by […] staining and caspase 3/7 reagent based analysis relative to control. The assay is classed as functional.
Assay [5] deals with A549. The experiment in a line: Induction of apoptosis in human A549 cells assessed as caspase 3/7 positive cells at 100 uM incubated for 48 hrs by […] staining and caspase 3/7 reagent based analysis relative to control. It counts as functional.
The nature of assay [6]: Induction of caspase3/7-mediated apoptosis in human A549 cells assessed as increase in mean fluorescence intensity at 10 to 100 uM incubated for 48 hrs. The note with it: dose 10-100 µM. The assay is classed as functional.

Usually IC50 stands for the concentration that inhibits the measured activity by half. For `CC(C)[C@@H](C)/C=C/[C@@H](C)[C@H]1CC[C@]2(C3=C[C@H](O)C4=C[C@@H](O)CC[C@]4(C)C3=O)OC(=O)C[C@]12C`, the IC50 came out at 4.8 µM in the assay on HCT-116, 5.3 µM in the assay with A549 [1], 12.7 µM in assay [2] and 12.7 µM in assay [3]. Moreover, the Activity with A549 [4] stood at 21.1%; in the assay with A549 [5], 81.9%; in assay [6], 2000.
`CC(C)[C@@H](C)/C=C/[C@@H](C)[C@H]1CC[C@]2(C3=CC(=O)[C@@H]4C[C@H](O)CC[C@]4(C)C3=O)OC(=O)C[C@]12C`: the IC50 with HCT-116 is 57.8 µM; in the assay on A549 [1], > 100 µM; in assay [2] it was > 100 µM; in assay [3], > 100 µM.
For `CC(C)[C@@H](C)/C=C/[C@@H](C)[C@H]1CC[C@]2(C3=CC(=O)C4=CC(=O)CC[C@]4(C)C3=O)OC(=O)C[C@]12C`, the IC50 turned out to be 45 µM with HCT-116, 54.3 µM in the assay on A549 [1], 53.6 µM in assay [2] and 54.3 µM in assay [3].
On to `CC(C)[C@@H](C)/C=C/[C@@H](C)[C@H]1CC[C@]2(C3=C[C@H](O)[C@@H]4C[C@H](O)CC[C@]4(C)C3=O)OC(=O)C[C@]12C`, for which the IC50 amounted to 14.6 µM with HCT-116, 19.7 µM in the assay with A549 [1], 34.1 µM in assay [2] and 14.2 µM in assay [3].
